Patent publication US20110053773A1, “METHODS OF IMPROVING NUTRITIONAL VALUE OF PLANTS” (UNIVERSITY OF TENNESSEE RESEARCH FOUNDATION, priority 2009, published 2011)

Assays:
Format in all cases: in vivo
[1] = tested on: sweet corn (Zea mays var. rugosa) cultivar 'Incredible'; experiment: Content analysis of sweet corn ears: crude protein, amino acids, detergent fiber, fatty acids, minerals (Example 1); conditions: POST at b59 rates; every treatment incl. check also got atrazine 560 g ai/ha + COC 1% v/v; relative to treated check (atrazine), check=0
Excerpt: Herbicide treatments were applied in a water carrier at 23 gallons of solution per acre on a field site near Knoxville, Tenn. and Painter, Va. Treatments include the following: 1) nicosulfuron at 35 g ai/ha (Accent); 2) mesotrione at 105 g ai/ha (Callisto); 3) nicosulfuron at 35 g ai/ha+mesotrione at 105 g ai/ha (Callisto+Accent); 4) tembotrione at 92 g ai/ha+isoxadifen-ethyl at 46 g ai/ha (Laudis); 5) topramezone at 15 g ai/ha (Impact); 6) nicosulfuron at 35 g ai/ha+isoxadifen-ethyl at 9 g ai/ha (Accent Q); 7) nicosulfuron at 35 g ai/ha+isoxadifen-ethyl at 9 g ai/ha+topramezone at 15 g ai/ha (Accent Q+Impact); 8) nicosulfuron 35 g ai/ha+isoxadifen-ethyl at 9 g ai/ha+mesotrione at 105 g ai/ha (Accent Q+Callisto); 9) treated check (atrazine or Aatrex). All treatments included a PRE application of atrazine plus metolachlor in order to maintain weed free conditions. In addition, all POST treatments (including the treated check) included atrazine at 560 g ai/ha and crop oil concentrate at 1% v/v. […] Sweet corn was harvested from the center two rows of each four row plot and weighed in the husk.

[2] = tested on: sweet corn cultivars 'Merit', 'Temptation', 'Incredible'; experiment: Kernel carotenoids of sweet corn after mesotrione and atrazine (Example 3); design: Kernel carotenoids: Lutein / Kernel carotenoids: Zeaxanthin: unit not given here; conditions: mesotrione 105, atrazine 560 g ai/ha
Method: (§1) Studies were conducted in a field in Knoxville, Tenn. to ascertain the growth, stress tolerance and nutritional quality differences following postemergence applications of herbicides mesotrione and atrazine, alone and in mixtures together, on the young sweet corn cultivars: ‘Merit’ (yellow-kernel sensitive genotype), ‘Temptation’ (bicolor tolerant genotype), and ‘Incredible’ (yellow-kernel moderately sensitive genotype).
(§2) Herbicide treatments were applied as follows: 1) untreated control; 2) mesotrione (meso) at 105 g ai/ha EPOST; 3) mesotrione at 105+atrazine at 560 g ai/ha EPOST; 4) atrazine at 560 g ai/ha EPOST; 5) mesotrione at 105 g ai/ha LPOST; 6) mesotrione at 105+atrazine at 560 g ai/ha LPOST; and 7) atrazine at 560 g ai/ha LPOST. Visual ratings of plant growth were taken during season, and kernels for carotenoids were measured at harvest.

[3] = tested on: sweet corn cultivars 'Merit', 'Temptation', 'Incredible'; experiment: Visual leaf tissue bleaching of sweet corn (Example 3, Table 9); conditions: mesotrione 105, atrazine 560 g ai/ha
Method: as §1, §2

[4] = 'Incredible' moderately sensitive genotype, EPOST
[5] = 'Incredible' moderately sensitive genotype, LPOST
[6] = 'Merit' sensitive genotype, EPOST
[7] = 'Merit' sensitive genotype, LPOST

## CCNc1nc(Cl)nc(NC(C)C)n1 [Atrazine*AATREX, atrazine]
[1]
  Acid DF: 0 % of check
  Alanine: 0 % of check
  Amino Acid: 0 % of check
  Aspartic ac: 0 % of check
  Cysteine: 0 % of check
  Glutamic ac: 0 % of check
  Glycine: 0 % of check
  Isoleucine: 0 % of check
  Leucine: 0 % of check
  Lysine: 0 % of check
  Methionine: 0 % of check
  Neutral DF: 0 % of check
  Proline: 0 % of check
  Protein: 0 % of check
  Threonine: 0 % of check
  Valine: 0 % of check
  calcium: 0 % of check
  copper: 0 % of check
  iron: 0 % of check
  magnesium: 0 % of check
  manganese: 0 % of check
  mon fattyac: 0 % of check
  phosphorous: 0 % of check
  polyfattyac: 0 % of check
  potassium: 0 % of check
  sat fattyac: 0 % of check
  sodium: 0 % of check
  tot fattyac: 0 % of check
  zinc: 0 % of check
[2]; [4]
  Lutein % change from untreated control: +7.6%
  Zeaxanthin % change from untreated control: −0.0%
[2]; 'Incredible' moderately sensitive genotype, EPOST, untreated 0.328
  Kernel carotenoids: Lutein: 0.353
[2]; 'Incredible' moderately sensitive genotype, EPOST, untreated 0.448
  Kernel carotenoids: Zeaxanthin: 0.447
[2]; [5]
  Lutein % change from untreated control: +6.0%
  Zeaxanthin % change from untreated control: +1.3%
[2]; 'Incredible' moderately sensitive genotype, LPOST, untreated 0.328
  Kernel carotenoids: Lutein: 0.347
[2]; 'Incredible' moderately sensitive genotype, LPOST, untreated 0.448
  Kernel carotenoids: Zeaxanthin: 0.454
[2]; [6]
  Kernel carotenoids: Lutein: 0.692
  Lutein % change from untreated control: +9.5%
  Zeaxanthin % change from untreated control: +10.8%
[2]; 'Merit' sensitive genotype, EPOST, untreated 0.509
  Kernel carotenoids: Zeaxanthin: 0.564
[2]; [7]
  Kernel carotenoids: Lutein: 0.664
  Lutein % change from untreated control: +5.1%
  Zeaxanthin % change from untreated control: +8.1%
[2]; 'Merit' sensitive genotype, LPOST, untreated 0.509
  Kernel carotenoids: Zeaxanthin: 0.550
[3]; ‘Incredible’, 7 DAT, EPOST
  Leaf Tissue Visual Bleaching (%): 13%
[3]; ‘Incredible’, 7 DAT, LPOST
  Leaf Tissue Visual Bleaching (%): 0%
[3]; ‘Incredible’, 14 DAT, EPOST
  Leaf Tissue Visual Bleaching (%): 13%
[3]; ‘Incredible’, 14 DAT, LPOST
  Leaf Tissue Visual Bleaching (%): 0%
[3]; ‘Incredible’, 21 DAT, EPOST
  Leaf Tissue Visual Bleaching (%): 0%
[3]; ‘Incredible’, 21 DAT, LPOST
  Leaf Tissue Visual Bleaching (%): 0%
[3]; ‘Merit’, 7 DAT, EPOST
  Leaf Tissue Visual Bleaching (%): 3%
[3]; ‘Merit’, 7 DAT, LPOST
  Leaf Tissue Visual Bleaching (%): 0%
[3]; ‘Merit’, 14 DAT, EPOST
  Leaf Tissue Visual Bleaching (%): 2%
[3]; ‘Merit’, 14 DAT, LPOST
  Leaf Tissue Visual Bleaching (%): 0%
[3]; ‘Merit’, 21 DAT, EPOST
  Leaf Tissue Visual Bleaching (%): 0%
[3]; ‘Merit’, 21 DAT, LPOST
  Leaf Tissue Visual Bleaching (%): 0%
